The structures appear in SMILES notation. Values joined by “and” are separate entries in the source; they are usually repeats but may differ in a detail not shown here. Identical values can stand only once.

8 compounds from patent publication US6878690B2, “Compounds and methods” (PharmAxis Pty Ltd., priority 2000, dated 2005) can be followed below.

Test [1] deals with lymphocyte migration into the spleen. In words: Inhibition of lymphocyte migration into lymphoid tissue (spleen). Particulars: intravenous dose of 5 mg of test compound together with labelled lymphocytes; spleens removed 1.5 hours after injection. Type of test: in vivo, Balb/C mice. From the text: In the present example, spleens from specific pathogen free 6-8 week old female Balb/C mice [19-21 g] were used to prepare a single cell suspension in the usual manner in mixed lymphocyte culture medium (DMEM plus glucose, folic acid, L-asparagine, sodium bicarbonate, L-glutamine, sodium pyruvate, HEPES, 2-mercaptoethanol, penicillin, streptomycin, neomycin, and 2% fetal calf serum) by pushing through a stainless steel screen. Following cell collection the red blood cells were lysed in the usual manner by treating with a solution of ammonium chloride, EDTA and sodium hydrogen carbonate (pH 7.3) and the preparation strained (Falcon 2350 cell strainer). All cell preparative steps were performed on ice.
In order to deplete the preparation of B lymphocytes, the cells were suspended in purified rat anti-mouse CD45/B220 antibody (RA3-6B2 clone; PharMingen, USA) at a concentration of 4×10^7 cells per ml and incubated on ice for 20 minutes. An equal volume of mixed lymphocyte culture medium (as above) was then added and the cells centrifuged (200× g) and resuspended at a concentration of 1×10^7 cells per ml in BioMag goat ant-rat IgG (H&L) linked to magnetic beads (Bio Mag; Perseptive Diagnostics, Polysciences Inc, USA). Following a 20 minute incubation on ice, with agitation every 5 minutes, the goat anti-rat IgG/antibody complex was removed using magnetic separation (Dynal MPC-6, Dynal, USA). The magnetic separation procedure was repeated 4 times giving a cell population containing approximately 80-90% T lymphocytes (determined by FACS analysis).
The cells were then washed in Hanks media, resuspended in 5 ml of Hanks, and radio-labelled for 30 minutes at 37° C. with sodium chromate solution (^51Cr, 34 MBq/ml, Amersham, UK). The labelled cells were washed in PBS centrifuged (200×g) and a portion were resuspended at a concentration of 3×10^7 cells/ml in either PBS (negative control), or PBS containing the test compound (25 mg/ml), and stored on ice. Balb/C mice in the negative control and treatment groups received a volume of 0.2 ml of the labelled cell preparation by a lateral tail vein injection. Negative control mice received 0.2 ml of PBS together with 6×10^6 51chromium-labelled lymphocytes, and mice from the treated groups received an intravenous dose of 5 mg of the test compound together with 6 million ^51chromium-labelled lymphocytes. […]
Spleens from the recipient mice were removed 1.5 hours after injection and the cell-associated radioactivity (CPM) determined using a gamma counter (Packard Auto-Gamma 5650. IL, USA). Results (inhibition of lymphocyte migration into the spleen) were expressed as a percentage reduction in the CPM of the spleens from treated animals compared with negative controls.

The subject of test [2] is DTH response to 2,4-dinitrofluorobenzene (DNFB). In words: Delayed-type hypersensitivity (DTH) response to DNFB, ear swelling. Type of test: in vivo, Balb/C mice.
Test [3] has as its system myelin basic protein (MBP)-specific T lymphocyte cell lines. In words: Inhibition of T-lymphocyte migration across rat brain endothelial cell layer (Transwell, 51Cr-labelled cells). Type of test: cell-based, Lewis rats. Particulars: test substance 10 mmolar in upper well; 6 hours; in comparison with the negative control (glucose 6-phosphate); triplicate. From the text:
Vascular endothelial cells were isolated from rat brain capillaries taken from 6 to 8 week old Lewis rats according to the method of Risau et al. (Risau, W., Engelhardt, B., and Wekerle, H., (1990). Journal of Cell Biology, vol 110, p 1757-1766, which is incorporated herein by reference). Colonies of endothelial cells were purified from astroglial cells and pericytes by a Thy1.1-mediated complement lysis also after the method of Risau et al. (vide supra). The endothelial colonies, according to methods known in the art, were grown in Dulbecco's minimum essential medium (DMEM) high glucose supplemented, with 20% fetal calf serum (FCS), glutamine, pyruvate, nonessential amino acids, 4-(2-hydroxyethyl)-1-piperazine ethane sulfonic acid buffer (HEPES), kanamycin, amphotericin, heparin (all from Gibco) and 150 micrograms/ml endothelial growth supplement (Collaborative Biomedical Products). Upon reaching confluence, the endothelial cultures were washed with 0.2% EDTA in phosphate buffered saline (PBS), trypsinized (Trypsin-EDTA, 0.1% final concentration, Gibco), washed and again incubated with anti-Thy1.1 antibody for 40 minutes, washed and incubated with complement sufficient to lyse all Thy1.1+ cells (Behringwerke, AG, Marburg, Germany) at room temperature, washed and plated on matrigel-coated 6.5 mm Transwells, […] (Corning Costar Corporation, Cambridge, Mass.). The endothelial cell characteristics and confluence of the monolayer were checked by measuring the electrical resistance (World Precision Instruments, New Haven, U.S.A., model EVOM-G) and by staining with FITC-labeled phalloidin (Sigma). In order to study the effect of the agents of the present invention on T lymphocyte migration, myelin basic protein (MBP)-specific T lymphocyte cell lines were generated according to the method of Ben-Nun et al. (Ben-Nun, A., Wekerle, H. and Cohen, I. R., 1981). The rapid isolation of clonable antigen-specific T lymphocyte lines capable of mediating autoimmune encephalomyelitis. European Journal of Immunology. 1981, 11(3), 195-199; incorporated herein by reference) from the lymph nodes of Lewis rats that had been immunised with MBP in Freund's complete adjuvant. These cells were used for migration studies during the first 4 days of their propagation in IL-2 containing medium, following antigen (MBP) restimulation in the presence of antigen-presenting cells from irradiated spleen cells or thymocytes taken from normal Lewis rats. The antigen-activated T lymphocytes were radio-labelled with sodium chromate (^51Cr, 37 MBq/ml, Amersham, UK) for 30 minutes at 37° C. with occasional agitation, they were then washed three times with the DMEM culture medium and placed into the upper chamber of the Transwells at 5×10^5 cells in 100 microliters of migration medium. Test and control substance were included in the upper wells at final concentrations of 0.1, 1 and 10 mM. Cell migration was monitored by light microscopy in order to gauge progress of the experiment. […] The combined material was transferred into scintillation vials and the radioactivity of each tube determined by counting for 1 minute in a Packard Auto-Gamma 5650 (IL, USA) gamma counter. Each test and the control substance (glucose 6-phosphate) and no treatment were assessed in triplicate. […]

The test system of test [4] is passively transferred adjuvant arthritis. Kind of test: Passively transferred adjuvant induced arthritis. Particulars: 37 mg/kg/day, end of the two week treatment period, FIG. 2. The test is classed as in vivo, DA rats. The procedure: Male DA rats 8 to 10 week old were immunised with three 100 microliter injections of Complete Freund's Adjuvant (CFA) intradermally at the base of the tail. The CFA was prepared by mixing 8 mg/ml of Mycobacterium butyricum (Difco Laboratories, USA) that had been ground to a fine powder using a mortar and pestle, in 85% light mineral oil (Sigma, USA) and 15% mannide monooleate (Sigma) and emulsifying this suspension, one part in one part saline. Thus, the final emulsion contained 4 mg/ml of M. butyricum.
Ten days after immunisation the rats were euthanased and the spleens removed aseptically. A single cell suspension was prepared in the usual manner in mixed lymphocyte culture medium (MLC) (Dulbecco's Modified Eagle's Medium (DMEM) plus glucose, folic acid, L-asparagine, sodium pyruvate, HEPES, 2-mercapto ethanol, penicillin, streptomycin, neomycin and 10% fetal calf serum) by pushing the spleens through a stainless steel sieve. The cells were placed in culture in MLC medium with 2 micrograms/ml concanavalin A added such that the lymphocyte concentration was 2 million cells per milliliter. These cells were cultured aseptically at 37° C. in an atmosphere containing 5% carbon dioxide for 72 hours.
Groups of 4 or 5 DA rats, 6 to 8 weeks of age were anesthetised with diethyl ether and implanted subcutaneously on the flank with Alzet 2002 (2 week delivery) or 2001 (1 week delivery) mini-osmotic pumps (Alza Corp., Palo Alto Calif., USA). One treatment group received phosphoric acid mono-(6-propyl-3,4,5-trihydroxy-tetrahydro-pyran-2-ylmethyl) ester in the one week delivery Alzet 2001 mini-osmotic pumps. The drug was delivered at a dose of 25 mg/kg/day. The control group for this experiment received identical mini-osmotic pumps containing normal saline. In a second experiment another group of DA rats received ethyl (3,4,5-trihydroxy-6-phosphonooxymethyl-tetrahydro-pyran-2-yl)-acetic acid ester in the two week delivery Alzet 2002 mini-osmotic pumps. This drug was delivered at a dose of 37 mg/kg/day. Control animals for this group received saline delivered in identical mini-osmotic pumps. The pumps in each case were implanted subcutaneously on the flank of each animal. […]
After 5 to 8 days, a characteristic thickening and cutaneous hyperemia of the distal joints of the hind legs became clinically apparent in the saline control animals. Disease severity was evaluated and graded in each group by taking daily measurements of the mediolateral widths of both ankle joints. The data were expressed as the mean of the change (compared with width prior to cell injection) in mediolateral ankle width expressed in millimeters (±standard error of the mean).

In the case of `N#CC1OC(COP(=O)([O-])[O-])C(O)C(O)C1O.[Na+].[Na+]` (stereo not drawn) [6-cyano-3,4,5-trihydroxy-tetrahydro-pyran-2-ylmethyl phosphoric acid ester disodium salt], the “Percent Inhibition (relative to negative controls) of lymphocyte migration into spleens” value in test [1] is 45.0%.

Regarding `O=C([O-])CC1OC(COP(=O)(O)O)C(O)C(O)C1O.O=C([O-])CC1OC(COP(=O)(O)O)C(O)C(O)C1O.[Na+].[Na+]` (stereo not drawn) [(3,4,5-trihydroxy-6-phosphonooxymethyl-tetrahydro-pyran-2-yl)-acetic acid disodium salt], the “Percent Inhibition (relative to negative controls) of lymphocyte migration into spleens” value in test [1] was 85.5%. Besides, the “Mean percentage decrease in ear swelling in treated animals” value in test [2] (45 mg/kg/day intraperitoneally, versus saline controls) is “Mean percentage decrease in ear swelling intreated animals: 29.4%”. The “Mean Difference, Treated” value in test [2] (group mean, 45 mg/kg/day intraperitoneally, saline control mean 0.068) amounted to 0.048 millimeters. In addition, the “Difference (right minus left ear), Treated” value in test [2] (individual mice, 45 mg/kg/day, mini-osmotic pump intraperitoneally, 24 hours after challenge, disodium salt) is 0.06 millimeters (2×) and 0.05 millimeters (3×) and 0.03 millimeters (3×) and 0.07 millimeters. Besides, the “Right ear thickness, Treated” value in test [2] (individual mice, challenged ear, 45 mg/kg/day, mini-osmotic pump intraperitoneally, 24 hours after challenge, disodium salt) was 0.27 millimeters (3×) and 0.24 millimeters (2×) and 0.29 millimeters and 0.26 millimeters (3×). In test [2] (individual mice, control (unchallenged) ear, 45 mg/kg/day, mini-osmotic pump intraperitoneally, 24 hours after challenge, disodium salt), the “Left ear thickness, Treated” value is 0.21 millimeters (6×) and 0.22 millimeters (2×) and 0.23 millimeters.

`O=C(O)CC1OC(COP(=O)(O)O)C(O)C(O)C1O` (stereo not drawn) [(3,4,5-trihydroxy-6-phosphonooxymethyl-tetrahydro-pyran-2-yl)-acetic acid]: the “% inhibition ± SEM” value in test [3] is listed as 32 ± 2%.

Turning to `CCOC(=O)CC1OC(COP(=O)([O-])O)C(O)C(O)C1O.[Na+]` (stereo not drawn) [Ethyl (3,4,5-trihydroxy-6-phosphonooxymethyl-tetrahydro-pyran-2-yl)-acetic acid ester sodium salt], the “Percent Inhibition (relative to negative controls) of lymphocyte migration into spleens” value in test [1] is 32.4%.

In the case of `CCOC(=O)CC1OC(COP(=O)(O)O)C(O)C(O)C1O` (stereo not drawn) [Ethyl (3,4,5-trihydroxy-6-phosphonooxymethyl-tetrahydro-pyran-2-yl)-acetic acid ester], the “swelling in the affected joints of treated animals” value in test [4] (two week Alzet 2002 pump subcutaneously, controls severe swelling) was “little swelling”. In addition, the “disease status of the treated versus the control animals” value in test [4] (two week Alzet 2002 pump) is recorded as “highly statistically significant difference”. Moreover, the “% inhibition ± SEM” value in test [3] amounted to 70 ± 4%.

In the case of `CCCCCOC(=O)CC1OC(COP(=O)(O)O)C(O)C(O)C1O` (stereo not drawn) [Pentyl (3,4,5-trihydroxy-6-phosphonooxymethyl-tetrahydro-pyran-2-yl)-acetic acid ester], in test [3], the “% inhibition ± SEM” value is given as 80 ± 4%.

Take `O=C[C@H](O)[C@@H](O)[C@H](O)[C@H](O)COP(=O)(O)O` [glucose 6-phosphate, reference compound]: the “% inhibition ± SEM” value in test [3] is 0 ± 5%.

In the case of `O=P([O-])(O)OCC1OCC(O)C(O)C1O.[Na+]` (stereo not drawn) [mono-(3,4,5-trihydroxy-tetrahydro-pyran-2-ylmethyl)phosphoric acid ester mono sodium salt], the “Percent Inhibition (relative to negative controls) of lymphocyte migration into spleens” value in test [1] is 68.0%.
